Experimental data as given in US9573987B2 (priority 2011, dated 2017).
Like-named read-outs stand apart in the source and are kept apart here. *1 amine or outer side, *2 acyl side, *3 side chain or, on linkers, in order; H or OH if unused. Where a SMILES comes first, the peptide text is derived from it. Side-chain parts run from the residue outwards. [ ]: non-standard residue; d: D form. The star is where a group is joined. Phe(4-NH2) = Nc1ccc(C[C@H](N)C(=O)O)cc1; d(εLys) = N[C@H](CCCCN[*:1])C(=O)[*:2]; εLys = N[C@@H](CCCCN[*:1])C(=O)[*:2]; Isobutyryl(2-OH) = CC(C)(O)C(=O)*; NMeA = CN[C@@H](C)C(=O)O; Sar = CNCC(=O)O

What was measured:
[1] = Dipeptide half life on IGF1 (p-NH2-F)A19 analogs in PBS; assay type: physicochemical; conditions: buffer
Protocol: Accordingly, the IGF1A chain alone was determined to be a good model for the study of pro-drug half life on IGF1 B:A (Y^B16L^B17) analog peptides. […] For simplicity, prodrug half lives were determined using only the IGF1 A chain in the absence of the B chain. The half lives of each propeptide was determined as described in Example 5.

[2] = biological target: T1, IGF-1 receptor (Homo sapiens, UniProt P08069); test: IGF-1 receptor phosphorylation assay, receptor transfected HEK293 cells; assay type: cell-based; design: expressed in transfected cells; host or cells: HEK293
T1 sequence (P08069 31-736 limits assumed): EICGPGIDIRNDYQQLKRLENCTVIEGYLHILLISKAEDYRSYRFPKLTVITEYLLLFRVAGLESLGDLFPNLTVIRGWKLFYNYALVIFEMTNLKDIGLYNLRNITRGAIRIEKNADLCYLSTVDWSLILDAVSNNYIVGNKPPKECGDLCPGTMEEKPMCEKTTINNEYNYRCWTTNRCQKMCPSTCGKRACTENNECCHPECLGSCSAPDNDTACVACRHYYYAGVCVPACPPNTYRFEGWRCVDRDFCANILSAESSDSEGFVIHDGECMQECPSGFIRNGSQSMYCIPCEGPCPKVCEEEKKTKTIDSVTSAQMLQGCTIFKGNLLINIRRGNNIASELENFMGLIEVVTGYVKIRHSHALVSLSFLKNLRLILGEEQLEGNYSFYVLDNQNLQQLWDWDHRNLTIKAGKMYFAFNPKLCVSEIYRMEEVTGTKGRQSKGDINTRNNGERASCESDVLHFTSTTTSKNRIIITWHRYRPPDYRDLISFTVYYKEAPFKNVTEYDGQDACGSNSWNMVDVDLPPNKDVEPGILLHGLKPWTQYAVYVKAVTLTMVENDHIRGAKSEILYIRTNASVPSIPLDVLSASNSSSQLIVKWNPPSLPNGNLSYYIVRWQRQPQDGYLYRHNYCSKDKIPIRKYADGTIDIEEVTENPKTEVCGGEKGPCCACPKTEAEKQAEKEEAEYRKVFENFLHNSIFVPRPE
T1 sequence (P08069 741-1367 partner limits assumed): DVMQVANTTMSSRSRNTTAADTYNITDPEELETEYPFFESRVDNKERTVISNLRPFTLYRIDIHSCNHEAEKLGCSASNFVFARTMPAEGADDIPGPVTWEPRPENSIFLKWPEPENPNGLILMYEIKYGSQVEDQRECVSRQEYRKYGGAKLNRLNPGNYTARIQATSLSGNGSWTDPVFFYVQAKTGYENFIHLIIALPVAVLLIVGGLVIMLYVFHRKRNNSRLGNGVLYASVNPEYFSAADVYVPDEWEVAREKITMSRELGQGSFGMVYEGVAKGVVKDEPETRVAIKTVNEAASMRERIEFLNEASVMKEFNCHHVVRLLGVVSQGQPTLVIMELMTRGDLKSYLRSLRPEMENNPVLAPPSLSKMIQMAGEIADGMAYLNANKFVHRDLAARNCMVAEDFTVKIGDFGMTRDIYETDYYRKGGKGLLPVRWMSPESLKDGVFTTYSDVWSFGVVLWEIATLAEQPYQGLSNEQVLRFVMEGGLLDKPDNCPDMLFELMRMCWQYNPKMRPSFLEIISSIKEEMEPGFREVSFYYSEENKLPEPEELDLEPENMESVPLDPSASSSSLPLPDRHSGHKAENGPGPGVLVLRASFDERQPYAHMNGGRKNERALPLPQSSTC
Protocol: (§1) Color development was stopped 5 min later by adding 0.05 ml 1 N HCl. Absorbance at 450 nm was measured on Titertek Multiscan MCC340 (ThermoFisher, Pittsburgh, Pa.).

[3] = biological target: T2, insulin receptor (Homo sapiens, UniProt P06213); test: Insulin receptor binding assay (competition, scintillation proximity); design: expressed in transfected cells; plasma membrane fragments; conditions: for Insulin Receptor % insulin (in test): Table 9
[4] = biological target: T1, IGF-1 receptor; test: IGF-1 receptor binding assay (competition, scintillation proximity); design: expressed in transfected cells; plasma membrane fragments; conditions: Table 9
[5] = biological target: T2, insulin receptor; test: Insulin receptor phosphorylation assay, receptor transfected HEK293 cells; assay type: cell-based; design: expressed in transfected cells; host or cells: HEK293; conditions: FIGS. 22A, 22B
Protocol: as §1

CC[C@H](C)[C@H](NC(=O)CN)C(=O)N[C@H](C(=O)N[C@@H](CC(=O)O)C(=O)N[C@@H](CCC(=O)O)C(=O)N[C@@H](C)C(=O)N[C@@H](C)C(=O)N[C@@H](Cc1ccccc1)C(=O)N[C@@H](CCCNC(=N)N)C(=O)N[C@@H](CO)C(=O)N[C@@H](C)C(=O)N[C@@H](CC(=O)O)C(=O)N[C@@H](CC(C)C)C(=O)N[C@@H](CCCNC(=N)N)C(=O)N[C@@H](CCCNC(=N)N)C(=O)N[C@@H](CC(C)C)C(=O)N[C@@H](CCC(=O)O)C(=O)N[C@@H](CCSC)C(=O)N[C@@H](Cc1ccc(NC(=O)[C@@H]2CCCN2C(=O)C(C)(C)O)cc1)C(=O)N[C@@H](C)C(=O)N[C@@H](C)C(N)=O)C(C)C [AiBOH Pro] (H-GIVDEAAFRSADLRRLEM[Phe(4-NH2)]([Pro-Isobutyryl(2-OH)])AA-NH2; N-terminus assumed)
half-life ([1]; Half Life (hr)): 165 h | half-life ([1]; Half Life (hr) PBS): 165 h

CC[C@H](C)[C@H](NC(=O)CN)C(=O)N[C@H](C(=O)N[C@@H](CC(=O)O)C(=O)N[C@@H](CCC(=O)O)C(=O)N[C@H]1CSSC[C@@H]2NC(=O)[C@H](CO)NC(=O)[C@H](C)NC(=O)[C@H](Cc3c[nH]cn3)NC(=O)[C@H](CSSC[C@H](NC(=O)[C@H](CC(C)C)NC(=O)[C@H](Cc3c[nH]cn3)NC(=O)[C@H](CCC(=O)O)NC(=O)[C@@H]3CCCN3C(=O)CN)C(=O)NCC(=O)N[C@@H](C)C(=O)N[C@@H](CC(=O)O)C(=O)N[C@@H](CC(C)C)C(=O)N[C@@H](C(C)C)C(=O)N[C@@H](CC(=O)O)C(=O)N[C@@H](C)C(=O)N[C@@H](CC(C)C)C(=O)N[C@@H](Cc3ccc(O)cc3)C(=O)N[C@@H](CC(C)C)C(=O)N[C@@H](C(C)C)C(=O)N[C@H](C(=O)NCC(=O)N[C@@H](CC(=O)O)C(=O)N[C@@H](C)C(=O)NCC(=O)N[C@@H](Cc3ccccc3)C(=O)N[C@@H](Cc3ccc(O)cc3)C(N)=O)CSSC[C@@H](C(=O)N[C@@H](CC(N)=O)C(=O)O)NC(=O)[C@H](Cc3ccc(O)cc3)NC(=O)[C@H](CCSC)NC(=O)[C@H](CCC(=O)O)NC(=O)[C@H](CC(C)C)NC(=O)[C@H](CCCNC(=N)N)NC(=O)[C@H](CCCNC(=N)N)NC(=O)[C@H](CC(C)C)NC(=O)[C@H](CC(=O)O)NC2=O)NC1=O)C(C)C
EC50 [2]: 11.3 nM | IGF-1 Receptor % IGF ([2]; Table 10): 7.7% | Insulin Receptor % insulin (in test) [3]: 1171.4% | IGF-1 Receptor % IGF-1 (in test) [4]: 2.3%

CC[C@H](C)[C@H](NC(=O)CN)C(=O)N[C@H](C(=O)N[C@@H](CC(=O)O)C(=O)N[C@@H](CCC(=O)O)C(=O)N[C@H]1CSSC[C@@H]2NC(=O)[C@H](CO)NC(=O)[C@H](CCCNC(=N)N)NC(=O)[C@H](Cc3ccccc3)NC(=O)[C@H](CSSC[C@H](NC(=O)[C@H](CC(C)C)NC(=O)[C@H](Cc3c[nH]cn3)NC(=O)[C@H](CCC(=O)O)NC(=O)[C@@H]3CCCN3C(=O)CN)C(=O)NCC(=O)N[C@@H](C)C(=O)N[C@@H](CC(=O)O)C(=O)N[C@@H](CC(C)C)C(=O)N[C@@H](C(C)C)C(=O)N[C@@H](CC(=O)O)C(=O)N[C@@H](C)C(=O)N[C@@H](CC(C)C)C(=O)N[C@@H](Cc3ccc(O)cc3)C(=O)N[C@@H](CC(C)C)C(=O)N[C@@H](C(C)C)C(=O)N[C@H](C(=O)NCC(=O)N[C@@H](CC(=O)O)C(=O)N[C@@H](CCCNC(=N)N)C(=O)NCC(=O)N[C@@H](Cc3ccccc3)C(=O)N[C@@H](Cc3ccc(O)cc3)C(N)=O)CSSC[C@@H](C(=O)N[C@@H](C)C(N)=O)NC(=O)[C@H](Cc3ccc(O)cc3)NC(=O)[C@H](CCSC)NC(=O)[C@H](CCC(=O)O)NC(=O)[C@H](CC(C)C)NC(=O)[C@H](CCCNC(=N)N)NC(=O)[C@H](CCCNC(=N)N)NC(=O)[C@H](CC(C)C)NC(=O)[C@H](CC(=O)O)NC2=O)NC1=O)C(C)C [IGF-1 A:B (H5D10Y16L17) DPI]
IGF-1 Receptor % IGF ([2]; Table 10): 7.1% | EC50 ([2]; total phosphorylation, Table 10): 12.2 nM | Ratio ([3]; IGF-1 receptor IC50 over insulin receptor IC50): 29.1 | Insulin Receptor % insulin (in test) [3]: 479.0% | IGF-1 Receptor % IGF-1 (in test) [4]: 11.2%

CC[C@H](C)[C@H](NC(=O)CN)C(=O)N[C@H](C(=O)N[C@@H](CC(=O)O)C(=O)N[C@@H](CCC(=O)O)C(=O)N[C@@H](C)C(=O)N[C@@H](C)C(=O)N[C@@H](Cc1ccccc1)C(=O)N[C@@H](CCCNC(=N)N)C(=O)N[C@@H](CO)C(=O)N[C@@H](C)C(=O)N[C@@H](CC(=O)O)C(=O)N[C@@H](CC(C)C)C(=O)N[C@@H](CCCNC(=N)N)C(=O)N[C@@H](CCCNC(=N)N)C(=O)N[C@@H](CC(C)C)C(=O)N[C@@H](CCC(=O)O)C(=O)N[C@@H](CCSC)C(=O)N[C@@H](Cc1ccc(NC(=O)[C@H](C)N(C)C(=O)[C@@H](N)CCCCNC(C)=O)cc1)C(=O)N[C@@H](C)C(=O)N[C@@H](C)C(N)=O)C(C)C [K(acetyl) N-methyl Ala] (H-GIVDEAAFRSADLRRLEM[Phe(4-NH2)]([NMeA-εLys-Ac])AA-NH2; N-terminus assumed)
half-life ([1]; Half Life (hr)): 23.6 h | half-life ([1]; Half Life (hr) PBS): 23.6 h

CC[C@H](C)[C@H](NC(=O)CN)C(=O)N[C@H](C(=O)N[C@@H](CC(=O)O)C(=O)N[C@@H](CCC(=O)O)C(=O)N[C@@H](C)C(=O)N[C@@H](C)C(=O)N[C@@H](Cc1ccccc1)C(=O)N[C@@H](CCCNC(=N)N)C(=O)N[C@@H](CO)C(=O)N[C@@H](C)C(=O)N[C@@H](CC(=O)O)C(=O)N[C@@H](CC(C)C)C(=O)N[C@@H](CCCNC(=N)N)C(=O)N[C@@H](CCCNC(=N)N)C(=O)N[C@@H](CC(C)C)C(=O)N[C@@H](CCC(=O)O)C(=O)N[C@@H](CCSC)C(=O)N[C@@H](Cc1ccc(NC(=O)[C@H](C)N(C)C(=O)[C@H](N)CCCCNC(C)=O)cc1)C(=O)N[C@@H](C)C(=O)N[C@@H](C)C(N)=O)C(C)C [dK(acetyl) N-methyl Ala] (H-GIVDEAAFRSADLRRLEM[Phe(4-NH2)]([NMeA-d(εLys)-Ac])AA-NH2; N-terminus assumed)
half-life ([1]; Half Life (hr)): 35.3 h | half-life ([1]; Half Life (hr) PBS): 35.3 h

CC[C@H](C)[C@H](NC(=O)CN)C(=O)N[C@H](C(=O)N[C@@H](CC(=O)O)C(=O)N[C@@H](CCC(=O)O)C(=O)N[C@@H](C)C(=O)N[C@@H](C)C(=O)N[C@@H](Cc1ccccc1)C(=O)N[C@@H](CCCNC(=N)N)C(=O)N[C@@H](CO)C(=O)N[C@@H](C)C(=O)N[C@@H](CC(=O)O)C(=O)N[C@@H](CC(C)C)C(=O)N[C@@H](CCCNC(=N)N)C(=O)N[C@@H](CCCNC(=N)N)C(=O)N[C@@H](CC(C)C)C(=O)N[C@@H](CCC(=O)O)C(=O)N[C@@H](CCSC)C(=O)N[C@@H](Cc1ccc(NC(=O)CN(C)C(=O)C(C)(C)O)cc1)C(=O)N[C@@H](C)C(=O)N[C@@H](C)C(N)=O)C(C)C [AiBOH Sar] (H-GIVDEAAFRSADLRRLEM[Phe(4-NH2)]([Sar-Isobutyryl(2-OH)])AA-NH2; N-terminus assumed)
half-life ([1]; Half Life (hr)): 2.3 h | half-life ([1]; Half Life (hr) PBS): 2.3 h

CC[C@H](C)[C@H](NC(=O)CN)C(=O)N[C@H](C(=O)N[C@@H](CC(=O)O)C(=O)N[C@@H](CCC(=O)O)C(=O)N[C@@H](C)C(=O)N[C@@H](C)C(=O)N[C@@H](Cc1ccccc1)C(=O)N[C@@H](CCCNC(=N)N)C(=O)N[C@@H](CO)C(=O)N[C@@H](C)C(=O)N[C@@H](CC(=O)O)C(=O)N[C@@H](CC(C)C)C(=O)N[C@@H](CCCNC(=N)N)C(=O)N[C@@H](CCCNC(=N)N)C(=O)N[C@@H](CC(C)C)C(=O)N[C@@H](CCC(=O)O)C(=O)N[C@@H](CCSC)C(=O)N[C@@H](Cc1ccc(NC(=O)CN(C)C(=O)[C@H](N)CCCCNC(C)=O)cc1)C(=O)N[C@@H](C)C(=O)N[C@@H](C)C(N)=O)C(C)C [dK(acetyl) Sar] (H-GIVDEAAFRSADLRRLEM[Phe(4-NH2)]([Sar-d(εLys)-Ac])AA-NH2; N-terminus assumed)
half-life ([1]; Half Life (hr)): 16.3 h | half-life ([1]; Half Life (hr) PBS): 17.2 h

B1: DP20 C^0CTP: native proinsulin C peptide linked to a CTP peptide as linking peptide (SEQ ID NO: 74) (protein, listed as Homo sapiens)
chain: GEEEEEKGPEHLCGAHLVDALYLVCGDRGFYRREAEDLQVGQVELGGGPGAGSLQPLALEGSLQRKSSSSRAPPPSLPSPSRLPGPSDTPILPQKGIVDECCHRSCDLRRLENYCN
in vitro phosphorylation activity at the insulin receptor (result in words) [5]: appear to have activity at the insulin receptor

B2: DP20 CTPC^0: CTP peptide linked to native proinsulin C peptide as linking peptide (SEQ ID NO: 73) (protein, listed as Homo sapiens)
chain: GEEEEEKGPEHLCGAHLVDALYLVCGDRGFYSSSSRAPPPSLPSPSRLPGPSDTPILPQKRREAEDLQVGQVELGGGPGAGSLQPLALEGSLQRKGIVDECCHRSCDLRRLENYCN
in vitro phosphorylation activity at the insulin receptor (result in words) [5]: appears more potent than DP20 C^0CTP

B3: DP20 2CTP: two end to end linked CTP peptides as the linking peptide (SEQ ID NO: 75) (protein, listed as Homo sapiens)
chain: GEEEEEKGPEHLCGAHLVDALYLVCGDRGFYSSSSRAPPPSLPSPSRLPGPSDTPILPQKSSSSRAPPPSLPSPSRLPGPSDTPILPQKGIVDECCHRSCDLRRLENYCN
in vitro phosphorylation activity at the insulin receptor (result in words) [5]: appears to be active as an insulin agonist
